According to ChEMBL document CHEMBL3885861, “Open TG-GATES”:

Species: Rattus norvegicus
Assay: Open TG-GATES - Regimen: Single
Format: toxicity, organism-based, Sprague-Dawley
Set-up: regimen Single, gender Male, age 6 weeks
Conditions: in vivo, po, 0 mg/kg, route gavage, dose level Control; for APTT / Bas / Eos / Fbg / Hb / Ht / Lym / MCH / MCHC / MCV / Mono / Neu / PT / Plat / RBC / Ret / WBC: tissue Blood; for KIDNEY_L / KIDNEY_R / KIDNEY_TOTAL: tissue Kidney; for LIVER: tissue Liver; for ALP / ALT / AST / BUN / CRE / DBIL / GLC / K / Na / PL / RALB / TBIL / TC / TG / TP / gamma-GTP: tissue Plasma

CN1C(=O)CN=C(c2ccccc2)c2cc(Cl)ccc21 [DIAZEPAM]
TERMINAL_BW (3 h): 214.4 g
APTT (3 h): 15.9 s
Bas (3 h): 0%
Eos (3 h): 1%
Fbg (3 h): 213.4 mg/dL
Hb (3 h): 13.5 g/dL
Ht (3 h): 40.5%
Lym (3 h): 71.2%
MCH (3 h): 22.3 pg
MCHC (3 h): 33.3%
MCV (3 h): 66.9 fL
Mono (3 h): 8.6%
Neu (3 h): 19.6%
PT (3 h): 12.4 s
Plat (3 h): 101 x10_4/uL
RBC (3 h): 606 x10_4/ul
Ret (3 h): 8.2%
WBC (3 h): 109.8 x10_2/uL
KIDNEY_L (3 h): 1 g
KIDNEY_R (3 h): 1 g
KIDNEY_TOTAL (3 h): 2 g
LIVER (3 h): 10.2 g
ALP (3 h): 836.4 IU/L
ALT (3 h): 31.8 IU/L
AST (3 h): 66.6 IU/L
BUN (3 h): 14.2 mg/dL
CRE (3 h): 0.5 mg/dL
DBIL (3 h): 0.028 mg/dL
GLC (3 h): 187.4 mg/dL
K (3 h): 5.2 meq/L
Na (3 h): 138.8 meq/L
PL (3 h): 131.6 mg/dL
RALB (3 h): 3.7 g/dL
TBIL (3 h): 0.4 mg/dL
TC (3 h): 71 mg/dL
TG (3 h): 52.2 mg/dL
TP (3 h): 5.5 g/dL
gamma-GTP (3 h): 1.8 IU/L
TERMINAL_BW (6 h): 213 g
APTT (6 h): 16.6 s
Bas (6 h): 0%
Eos (6 h): 0.6%
Fbg (6 h): 216 mg/dL
Hb (6 h): 13.8 g/dL
Ht (6 h): 41.8%
Lym (6 h): 77.2%
MCH (6 h): 21.4 pg
MCHC (6 h): 33.1%
MCV (6 h): 64.6 fL
Mono (6 h): 6.4%
Neu (6 h): 15.8%
PT (6 h): 12.6 s
Plat (6 h): 106.4 x10_4/uL
RBC (6 h): 647 x10_4/ul
Ret (6 h): 8.5%
WBC (6 h): 105.2 x10_2/uL
KIDNEY_L (6 h): 1 g
KIDNEY_R (6 h): 1 g
KIDNEY_TOTAL (6 h): 2 g
LIVER (6 h): 9.6 g
ALP (6 h): 878 IU/L
ALT (6 h): 29.6 IU/L
AST (6 h): 60 IU/L
BUN (6 h): 9.8 mg/dL
CRE (6 h): 0.5 mg/dL
DBIL (6 h): 0.016 mg/dL
GLC (6 h): 203 mg/dL
K (6 h): 4.9 meq/L
Na (6 h): 138.6 meq/L
PL (6 h): 140 mg/dL
RALB (6 h): 3.7 g/dL
TBIL (6 h): 0.3 mg/dL
TC (6 h): 74.8 mg/dL
TG (6 h): 84.2 mg/dL
TP (6 h): 5.6 g/dL
gamma-GTP (6 h): 1.2 IU/L
TERMINAL_BW (9 h): 212.8 g
APTT (9 h): 15.7 s
Bas (9 h): 0%
Eos (9 h): 0.8%
Fbg (9 h): 215.4 mg/dL
Hb (9 h): 13.6 g/dL
Ht (9 h): 41.5%
Lym (9 h): 79.2%
MCH (9 h): 21.7 pg
MCHC (9 h): 32.8%
MCV (9 h): 66 fL
Mono (9 h): 5.6%
Neu (9 h): 14.4%
PT (9 h): 12.7 s
Plat (9 h): 101.7 x10_4/uL
RBC (9 h): 628.4 x10_4/ul
Ret (9 h): 8.2%
WBC (9 h): 117.7 x10_2/uL
KIDNEY_L (9 h): 1 g
KIDNEY_R (9 h): 1 g
KIDNEY_TOTAL (9 h): 2 g
LIVER (9 h): 9 g
ALP (9 h): 712.4 IU/L
ALT (9 h): 29 IU/L
AST (9 h): 59.8 IU/L
BUN (9 h): 10.6 mg/dL
CRE (9 h): 0.6 mg/dL
DBIL (9 h): 0.038 mg/dL
GLC (9 h): 204 mg/dL
K (9 h): 4.8 meq/L
Na (9 h): 138.6 meq/L
PL (9 h): 130.4 mg/dL
RALB (9 h): 3.7 g/dL
TBIL (9 h): 0.4 mg/dL
TC (9 h): 75 mg/dL
TG (9 h): 41.6 mg/dL
TP (9 h): 5.5 g/dL
gamma-GTP (9 h): 1.8 IU/L
TERMINAL_BW (24 h): 227.4 g
APTT (24 h): 16.7 s
Bas (24 h): 0%
Eos (24 h): 1%
Fbg (24 h): 210.2 mg/dL
Hb (24 h): 13.7 g/dL
Ht (24 h): 41%
Lym (24 h): 81.6%
MCH (24 h): 21.9 pg
MCHC (24 h): 33.4%
MCV (24 h): 65.8 fL
Mono (24 h): 5.8%
Neu (24 h): 12.2%
PT (24 h): 12.2 s
Plat (24 h): 108.9 x10_4/uL
RBC (24 h): 624.2 x10_4/ul
Ret (24 h): 7.7%
WBC (24 h): 114.5 x10_2/uL
KIDNEY_L (24 h): 1.1 g
KIDNEY_R (24 h): 1 g
KIDNEY_TOTAL (24 h): 2.1 g
LIVER (24 h): 11.2 g
ALP (24 h): 817.8 IU/L
ALT (24 h): 33.4 IU/L
AST (24 h): 58.4 IU/L
BUN (24 h): 15.2 mg/dL
CRE (24 h): 0.5 mg/dL
DBIL (24 h): 0.006 mg/dL
GLC (24 h): 191.2 mg/dL
K (24 h): 5.1 meq/L
Na (24 h): 138.6 meq/L
PL (24 h): 131.8 mg/dL
RALB (24 h): 3.9 g/dL
TBIL (24 h): 0.3 mg/dL
TC (24 h): 63.2 mg/dL
TG (24 h): 112.8 mg/dL
TP (24 h): 5.8 g/dL
gamma-GTP (24 h): 1 IU/L
